Results from patent US9969775B2, “CGRP antagonist peptides” (Ferring B.V., priority 2015, dated 2018).
Numbered stars: 1 amine (or outer) side, 2 acyl side, 3 side chain; on linkers, the order of the positions; unused ones are H or OH. Bridge positions count the residues as written; N and C are the ends. Square brackets hold non-standard residues; d marks the D form. Peptide text beside a SMILES is read from it. * marks the point of attachment. Phe(3-CH2NH2) = O=C([C@H](Cc1cccc(CN[*:3])c1)N[*:1])[*:2]; Phe(3-CONH2) = NC(=O)c1cccc(C[C@H](N)C(=O)O)c1; Phe(2-CONH2) = NC(=O)c1ccccc1C[C@H](N)C(=O)O; X15 = N#CN=C(N)NCCC[C@H](N[*:1])C(=O)[*:2]; X5 = O=C([C@H](Cc1ccc(CO)cc1)N[*:1])[*:2]; Triazol3yl(1,2,4-5-NH2) = Nc1nc(*)n[nH]1; X14 = CCN(CC)CCC[C@H](N[*:1])C(=O)[*:2]; Arg(Me) = CNC(=N)NCCC[C@H](N)C(=O)O; Orn(iPr) = CC(C)NCCC[C@H](N)C(=O)O; Oxazole2carbonyl = O=C(c1ncco1)*; 3Pal = N[C@@H](Cc1cccnc1)C(=O)O; Picolinoyl = O=C(c1ccccn1)*; ΔPro = O=C(O)[C@@H]1C=CCN1; Orn = NCCC[C@H](N)C(=O)O; X1 = O=C(c1ncccc1F)*; X6 = O=C(c1ccncn1)*

Key:
[1] = biological target: T1, hAM2 receptor (CALCRL:RAMP3) (Homo sapiens, UniProt O60896+Q16602); assay: AM2 receptor antagonist activity measured by cAMP assay (HTRF); format: cell-based; settings: for Emax: % MPE: percent of the maximal possible effect, read-out: hAM2-R Efficacy Antag (%) Ave; for Emax / IC50: agonist human adrenomedullin; for IC50: GeneBLAzer CALCRL:RAMP3-CRE-bla Freestyle 293F cells, read-out: hAM2-R IC50 Ave; for selectivity ratio CGRP/AM2: selectivity ratio for hCGRP over hAM2, calculated from the IC50 values
T1 construct: expressed in transfected cells; host or cells: GeneBLAzer CALCRL:RAMP3-CRE-bla Freestyle 293F

[2] = biological target: T2, hCGRP receptor (CALCRL:RAMP1) (Homo sapiens, UniProt O60894+Q16602); assay: CGRP receptor antagonist activity measured by cAMP assay (HTRF); format: cell-based; settings: agonist human α-CGRP; for Emax: % MPE: percent of the maximal possible effect, read-out: hCGRP-R Efficacy Antag (%) Ave; for IC50: GeneBLAzer CALCRL:RAMP1-CRE-bla Freestyle 293F cells, 30 minutes, read-out: hCGRP-R IC50 Ave
T2 construct: host or cells: GeneBLAzer CALCRL:RAMP1-CRE-bla Freestyle 293F
Procedure: Example 6: CGRP Receptor Antagonist Activity Measured by cAMP Assay
CGRP receptor agonists increase intracellular cyclic adenosine mono-phosphate (cAMP). CGRP receptor antagonists can reduce the agonist effect. Antagonist activity was assessed by measurement of cyclic adenosine mono-phosphate (cAMP) using cell line stably expressing the hCGRP receptor (GeneBLAzer® CALCRL:RAMP1-CRE-bla Freestyle™ 293F, Invitrogen). hCGRP receptor expressing cells were maintained in DMEM high-glucose with GlutaMAX™ containing 10% (v/v) FBS, 0.1 mM NEAA, 25 mM HEPES, 5 ug/ml Blasticidin, 100 ug/ml Hygromycin, and 400 ug/ml Geneticin at 37° C. under 5% CO2 in a humidified atmosphere. For cAMP measurement, cells were washed once with 5 ml 1×PBS, cell maintenance media was replaced with compound buffer ((CB): DMEM containing 0.1% BSA and 0.5 mM IBMX), and flasks were incubated for 1 hour at 37° C. under 5% CO2 in a humidified atmosphere. Cells were removed from culture flasks using non-enzymatic cell dissociation buffer and harvested in CB. The reaction was performed in 384 well white small volume plates (Greiner) at a density of 10,000 cells/well. Cells were exposed to varying concentrations of antagonist compounds for 30 minutes in the presence of a fixed concentration of agonist (human α-CGRP). cAMP levels were measured using an HTRF (homogeneous time resolved fluorescence)-based competitive cAMP immunoassay (cAMP Dynamic 2 Kit, Cisbio), according to the manufacturer's instructions. […] Reported parameters include antagonist potency IC50 (the concentration causing half-maximal inhibition of the agonist response for antagonist compounds) and efficacy (% MPE: percent of the maximal possible effect).

T2 sequence (Q16602 23-461): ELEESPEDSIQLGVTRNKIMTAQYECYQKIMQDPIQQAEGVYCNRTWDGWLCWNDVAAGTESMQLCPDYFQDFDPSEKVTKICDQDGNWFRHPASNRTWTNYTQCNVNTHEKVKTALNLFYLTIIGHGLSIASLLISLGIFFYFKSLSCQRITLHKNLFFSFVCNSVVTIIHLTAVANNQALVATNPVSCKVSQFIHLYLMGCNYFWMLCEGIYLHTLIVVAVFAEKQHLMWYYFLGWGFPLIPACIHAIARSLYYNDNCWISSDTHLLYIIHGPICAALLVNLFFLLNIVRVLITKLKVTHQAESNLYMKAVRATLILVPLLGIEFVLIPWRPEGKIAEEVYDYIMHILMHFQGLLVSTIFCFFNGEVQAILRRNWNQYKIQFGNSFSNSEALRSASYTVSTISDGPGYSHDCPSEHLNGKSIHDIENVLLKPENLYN
T2 sequence (O60894 27-148): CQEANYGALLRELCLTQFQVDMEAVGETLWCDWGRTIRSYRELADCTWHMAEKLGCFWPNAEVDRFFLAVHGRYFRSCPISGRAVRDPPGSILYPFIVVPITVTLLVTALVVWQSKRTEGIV
T1 sequence (Q16602 23-461): as the sequence (Q16602 23-461) above
T1 sequence (O60896 24-148): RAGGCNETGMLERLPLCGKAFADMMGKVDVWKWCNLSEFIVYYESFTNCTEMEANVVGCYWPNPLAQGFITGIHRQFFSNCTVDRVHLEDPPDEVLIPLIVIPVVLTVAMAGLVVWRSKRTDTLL

Row | Compound | Emax [1] | IC50 [1] | selectivity ratio CGRP/AM2 [1] | Emax [2] | IC50 [2]
1 | CCN(CC)CCC[C@@H]1NC(=O)[C@@H](NC(=O)[C@H](Cc2ccc(O)cc2)NC(=O)[C@H](NC(=O)c2ccccn2)C(C)C)CSSC[C@@H](C(=O)N[C@@H](Cc2cccnc2)C(N)=O)NC(=O)[C@H](Cc2ccccc2)NC(=O)[C@@H]2CCCN2C(=O)CNC(=O)[C@H](C(C)C)NC(=O)[C@H](CC(=O)O)NC1=O [Compound 24, Picolinoyl-D-Val-Tyr-c(Cys-Orn(Et2)-Asp-Val-Gly-Pro-Phe-Cys)-3Pal-NH2] (Picolinoyl-[dV]YC[X14]DVGPFC[3Pal]-NH2; disulfide 3-10) | 98% | 128 nM | 1213 | 100% | 0.11 nM
2 | CC(C)[C@@H]1NC(=O)[C@H](CC(=O)O)NC(=O)[C@H](CCCN)NC(=O)[C@@H](NC(=O)[C@H](Cc2ccc(O)cc2)NC(=O)[C@H](NC(=O)c2ccccn2)C(C)C)CSSC[C@@H](C(=O)N[C@@H](Cc2cccnc2)C(N)=O)NC(=O)[C@H](Cc2ccc(CO)cc2)NC(=O)[C@@H]2CCCN2C(=O)CNC1=O [Compound 25, Picolinoyl-D-Val-Tyr-c(Cys-Orn-Asp-Val-Gly-Pro-Phe(4-CH2OH)-Cys)-3Pal-NH2] (Picolinoyl-[dV]YC[Orn]DVGP[X5]C[3Pal]-NH2; disulfide 3-10) | 100% | 78 nM | 1071 | 100% | 0.07 nM
3 | CC(C)[C@@H]1NC(=O)[C@H](CC(=O)O)NC(=O)[C@H](CCCNC(N)=NC#N)NC(=O)[C@@H](NC(=O)[C@H](Cc2ccc(O)cc2)NC(=O)[C@H](NC(=O)c2ccccn2)C(C)C)CSSC[C@@H](C(=O)N[C@@H](Cc2cccnc2)C(N)=O)NC(=O)[C@H](Cc2ccccc2)NC(=O)[C@@H]2CCCN2C(=O)CNC1=O [Compound 26, Picolinoyl-D-Val-Tyr-c(Cys-Arg(CN)-Asp-Val-Gly-Pro-Phe-Cys)-3Pal-NH2] (Picolinoyl-[dV]YC[X15]DVGPFC[3Pal]-NH2; disulfide 3-10) | 100% |  |  | 100% | 
4 | CC(C)[C@@H]1NC(=O)[C@H](CC(=O)O)NC(=O)[C@H](CCCNc2nc(N)n[nH]2)NC(=O)[C@@H](NC(=O)[C@H](Cc2ccc(O)cc2)NC(=O)[C@H](NC(=O)c2ccccn2)C(C)C)CSSC[C@@H](C(=O)N[C@@H](Cc2cccnc2)C(N)=O)NC(=O)[C@H](Cc2ccccc2)NC(=O)[C@@H]2CCCN2C(=O)CNC1=O [Compound 27, Picolinoyl-D-Val-Tyr-c(Cys-Orn(Atz)-Asp-Val-Gly-Pro-Phe-Cys)-3Pal-NH2] (Picolinoyl-[dV]YC[Orn](Triazol3yl(1,2,4-5-NH2))DVGPFC[3Pal]-NH2; disulfide 3-10) | 98% | 119 nM | 765 | 100% | 0.15 nM
5 | CNC(=N)NCCC[C@@H]1NC(=O)[C@@H](NC(=O)[C@H](Cc2ccc(O)cc2)NC(=O)[C@H](NC(=O)c2ccccn2)C(C)C)CSSC[C@@H](C(=O)N[C@@H](Cc2cccnc2)C(N)=O)NC(=O)[C@H](Cc2ccccc2)NC(=O)[C@@H]2CCCN2C(=O)CNC(=O)[C@H](C(C)C)NC(=O)[C@H](CC(=O)O)NC1=O [Compound 28, Picolinoyl-D-Val-Tyr-c(Cys-Arg(Me)-Asp-Val-Gly-Pro-Phe-Cys)-3Pal-NH2] (Picolinoyl-[dV]YC[Arg(Me)]DVGPFC[3Pal]-NH2; disulfide 3-10) | 99% |  |  | 100% | 
6 | CC(C)[C@@H]1NC(=O)[C@H](CC(=O)O)NC(=O)[C@H](CCCN)NC(=O)[C@@H](NC(=O)[C@H](Cc2ccc(O)cc2)NC(=O)[C@H](NC(=O)c2ncccc2F)C(C)C)CSSC[C@@H](C(=O)N[C@@H](Cc2cccnc2)C(N)=O)NC(=O)[C@H](Cc2ccc(CO)cc2)NC(=O)[C@@H]2CCCN2C(=O)CNC1=O [Compound 29, Picolinoyl(3-F)-D-Val-Tyr-c(Cys-Orn-Asp-Val-Gly-Pro-Phe(4-CH2OH)-Cys)-3Pal-NH2] (X1-[dV]YC[Orn]DVGP[X5]C[3Pal]-NH2; disulfide 3-10) | 98% | 148 nM | 1699 | 100% | 0.09 nM
7 | CC(C)NCCC[C@@H]1NC(=O)[C@@H](NC(=O)[C@H](Cc2ccccc2C(N)=O)NC(=O)[C@H](NC(=O)c2ncco2)C(C)C)CSSC[C@@H](C(=O)N[C@@H](Cc2cccnc2)C(N)=O)NC(=O)[C@H](Cc2ccccc2)NC(=O)[C@@H]2CCCN2C(=O)CNC(=O)[C@H](C(C)C)NC(=O)[C@H](CC(=O)O)NC1=O [Compound 30, Oxazole-2-carbonyl-D-Val-Phe(2-Cbm)-c(Cys-Orn(iPr)-Asp-Val-Gly-Pro-Phe-Cys)-3Pal-NH2] (Oxazole2carbonyl-[dV][Phe(2-CONH2)]C[Orn(iPr)]DVGPFC[3Pal]-NH2; disulfide 3-10) | 98% | 700 nM | 6628 | 100% | 0.11 nM

More lines, in order of falling IC50 [1], values ahead:

Row | Emax [1] | IC50 [1] | selectivity ratio CGRP/AM2 [1] | Emax [2] | IC50 [2] | Compound
8 | 99% | 61 nM | 498 | 100% | 0.12 nM | CC(C)[C@@H]1NC(=O)[C@H](CC(=O)O)NC(=O)[C@H](CCCNC(=N)N)NC(=O)[C@@H](NC(=O)[C@H](Cc2ccccc2C(N)=O)NC(=O)[C@H](NC(=O)c2ncccc2F)C(C)C)CSSC[C@@H](C(=O)N[C@@H](Cc2cccnc2)C(N)=O)NC(=O)[C@H](Cc2cccc(CN)c2)NC(=O)[C@@H]2C=CCN2C(=O)CNC1=O [Compound 32, Picolinoyl(3-F)-D-Val-Phe(2-Cbm)-c(Cys-Arg-Asp-Val-Gly-Dhp-Phe(3-CH2NH2)-Cys)-3Pal-NH2] (X1-[dV][Phe(2-CONH2)]CRDVG[ΔPro][Phe(3-CH2NH2)]C[3Pal]-NH2; disulfide 3-10)
9 | 100% | 46 nM | 390 | 100% | 0.12 nM | CC(C)[C@@H]1NC(=O)[C@H](CC(=O)O)NC(=O)[C@H](CCCNC(=N)N)NC(=O)[C@@H](NC(=O)[C@H](Cc2ccccc2C(N)=O)NC(=O)[C@H](NC(=O)c2ccncn2)C(C)C)CSSC[C@@H](C(=O)N[C@@H](Cc2cccnc2)C(N)=O)NC(=O)[C@H](Cc2cccc(CN)c2)NC(=O)[C@@H]2C=CCN2C(=O)CNC1=O [Compound 31, Pyrimidine-4-carbonyl-D-Val-Phe(2-Cbm)-c(Cys-Arg-Asp-Val-Gly-Dhp-Phe(3-CH2NH2)-Cys)-3Pal-NH2] (X6-[dV][Phe(2-CONH2)]CRDVG[ΔPro][Phe(3-CH2NH2)]C[3Pal]-NH2; disulfide 3-10)
10 | 100% | 21 nM | 400 | 100% | 0.05 nM | CC(C)[C@@H]1NC(=O)[C@H](CC(=O)O)NC(=O)[C@H](CCCNC(=N)N)NC(=O)[C@@H](NC(=O)[C@H](Cc2cccc(CN)c2)NC(=O)[C@H](NC(=O)c2ncco2)C(C)C)CSSC[C@@H](C(=O)N[C@@H](Cc2cccnc2)C(N)=O)NC(=O)[C@H](Cc2cccc(C(N)=O)c2)NC(=O)[C@@H]2C=CCN2C(=O)CNC1=O [Compound 23, Oxazole-2-carbonyl-D-Val-Phe(3-CH2NH2)-c(Cys-Arg-Asp-Val-Gly-Dhp-Phe(3-Cbm)-Cys)-3Pal-NH2] (Oxazole2carbonyl-[dV][Phe(3-CH2NH2)]CRDVG[ΔPro][Phe(3-CONH2)]C[3Pal]-NH2; disulfide 3-10)
